# In patent US9578878B2, “Antimicrobial efficacy of an oregano oil and caprylic acid blend” (Kemin Industries, Inc., priority 2014, dated 2017):
# How the values were obtained:
# A. brasiliensis = test: Zone of inhibition assay; type: cell-based, Aspergillus brasiliensis; settings: 20 μL per 6 mm disk, 72 hrs, n = 3
# Method: For assays to find minimum inhibitory concentrations, all treatments were diluted in 10% DMSO and 0.5% Tween 80 to stabilize the samples.
# Microorganisms Escherichia coli (ATCC #8739), Streptococcus sanguinis (ATCC #BAA-1455), Salmonella enteria subsp. enterica (ex Kauffmann and Edwards) Le Minor and Popoff serovar Typhimurium (ATCC #14028), Staphylococcus aureus (ATCC #6538), Pseudomonas aeruginosa (ATCC #9027), and Candida albicans (ATCC #10231) were obtained from a −80° C. internal stock culture. Aspergillus brasiliensis (ATCC #16404) was obtained from an internal stock solution culture stored at 4° C. E. coli, S. enterica S. aureus, and P. aeruginosa were grown in tryptic soy broth (TSB) and incubated at 37° C. for 24 h. S. sanguinis was grown in brain heart infusion broth (BHI). A. brasiliensis was plated on Sabourand dextrose agar (SDA) and incubated at 25° C. for 5-7 days. C. albicans was grown in Sabourand dextrose broth (SDB) and incubated at 25° C. for 48 h.
# A. brasiliensis was harvested by adding 18 mL sterile saline to the plate and agitating the mold from the agar with a sterile inoculating loop. The inoculum was collected upon agitation. All suspended microbes were diluted with the same type of broth media used to grow each organism until an inoculum in the range of 10^6 CFU/mL was achieved. The inoculum concentration was determined by plate count method. Each strain was identified by plating on the appropriate growth media, E. coli, S. aureus, and P. aeruginosa on tryptic soy agar (Bacto, BD Sciences, Manassas, Va.) and C. albicans and A. brasiliensis on Sabrouand dextrose agar, to ensure there was no contamination of the inoculum.
# A zone of inhibition assay was used for A. brasiliensis and C. albicans. SDA was used as the plated medium. Inocula at 10^5 cfu/ml were prepared and counted using a Petroff-Hausser counting chamber. The diameter of no growth around a 6 mm blank disk after incubation at 25° C. for 72 hrs was compared to the untreated control. 20 μL of treatment was applied to each disk in triplicate. 10% DMSO was used as the control.
# [1] = tested on: Aspergillus brasiliensis (ATCC #16404); test: Preservative efficacy testing in cream, Example 2 (Study 1 and 2); type: cell-based
# Method: (§1) Oregano essential oil containing 67.8% carvacrol (lot number 628034, thymol was not detectable) was received from Kemin SCI. Caprylic acid was obtained from Fisher Scientific (catalog number AC12939). To make MicroCurb OC, a blend with 10% oregano essential oil and 90% caprylic acid (w/w) was prepared for initial testing. The solution was mixed thoroughly for 10 seconds by a vortex mixer until a clear, homogenous mixture was obtained, resulting in the product MicroCurb OC.
# (§2) Creams were prepared aseptically by spraying 70% isopropyl alcohol on all surfaces and glassware. Preservative studies were completed at different times for caprylic acid alone (Study 1) and MicroCurb OC (Study 2). Tables 5 and 6 list the various ingredients and their percentages used in Study 1 and 2, respectively.
# (§3) De-ionized water was added to a pre-weighed 250 mL beaker and mixed at 800 rpm using an overhead mixer (Eurostar power-b IKA-WERKE, Wilmington, N.C.) with a 3 blade impeller. Carbomer 940 was slowly added to the center of the mixing water. The mixture was hydrated for 30 minutes while covered with aluminum foil. Glycerin and Lysofix were slowly added to the solution. After solution appeared homogenous, safflower oil, olive oil, and coco caprylate were slowly added to the mixture at 1000 rpm. The solution was mixed for 30 minutes while covered with aluminum foil. Next the pH was measured (around 3.2) and adjusted to 5.5 with a 33.3% sodium hydroxide solution. The mixing speed was increased to 1400 rpm. From time to time, it was necessary to scrape the sides of the beaker with a spatula to ensure that the cream became homogenized. After 5 minutes, the cream was weighed and water was replenished for the mass lost during the processing.
# (§4) Microorganisms Escherichia coli (ATCC #8739), Staphylococcus aureus (ATCC #6538), Pseudomonas aeruginosa (ATCC #9027), and Candida albicans (ATCC #10231) were obtained from −80° C. internal stock cultures. Aspergillus brasiliensis (ATCC #16404) was obtained from an internal stock solution stored at 4° C. E. coli, S. aureus, and P. aeruginosa were grown in TSB and incubated at 37° C. for 24 h. A. brasiliensis was plated on SDA and incubated at 25° C. for 5-7 days. C. albicans was grown in SDB and incubated at 25° C. for 48 h.
# (§5) Pathogens in broth were harvested by centrifugation (2400 rpm, 20 minutes) and suspended in sterile phosphate buffer. A. brasiliensis was harvested by adding 18 mL sterile phosphate buffer to the plate and agitating the mold from the agar with a sterile inoculating loop. The spores were collected upon agitation. All suspended microbes were diluted with sterile phosphate buffer until a concentration in the range of 10^8 CFU/mL was achieved. The concentration was determined by plate count method. Each strain was identified by plating on the appropriate growth media, E. coli, S. aureus, and P. aeruginosa on TSA and C. albicans and A. brasiliensis on SDA, to ensure there was no contamination of the inoculum.
# (§6) Preservative Efficacy Testing. Each tube was inoculated with the standardized microbial suspensions, using a ratio of 1 mL to 10 grams of the product, ensuring that the inoculum after suspension would yield the target level of 6-log CFU/g cream. For every testing time point, the sample was enumerated by sampling 1 g from the original product containers, serial dilution, and streaking plates containing the appropriate growth media to test colonization in duplicate. The inoculated plates were incubated at 25° C. for C. albicans and A. niger and 37° C. for E. coli, S. aureus, and P. aeruginosa. The number of viable microorganisms per gram was calculated via plate count method. The samples were enumerated on day 0, 2, 3, 5, 7, 14, and 28.
# (§7) The plate counts obtained each day were averaged for each treatment. The results were shown graphically by the log count of each averaged value per treatment per day. For plates that had no growth, the lowest dilution plated was recorded.
# [2] = tested on: Candida albicans (ATCC #10231); test: as above; type: cell-based; settings: Study 1, cream with 0.5% or 1.0% caprylic acid, after 2 days
# Method: as §1, §2, §3, §4, §5, §6, §7
# [3] = tested on: Escherichia coli (ATCC #8739); test: as above; type: cell-based; settings: Study 1, cream with 0.5% or 1.0% caprylic acid, after 3 days
# Method: as §1, §2, §3, §4, §5, §6, §7
# [4] = tested on: Pseudomonas aeruginosa (ATCC #9027); test: as above; type: cell-based; settings: Study 1, cream with 0.5% or 1.0% caprylic acid, after 2 days
# Method: as §1, §2, §3, §4, §5, §6, §7
# [5] = tested on: Staphylococcus aureus (ATCC #6538); test: as above; type: cell-based; settings: Study 1, cream with 0.5% or 1.0% caprylic acid, after 2 days
# Method: as §1, §2, §3, §4, §5, §6, §7
smiles,measurement,setting,value
"CCCCCCCC(=O)O [Caprylic Acid, octanoic acid]","Inhibition Diameter, A. brasiliensis",A. brasiliensis; 0.9% treatment,0 mm
same,"Inhibition Diameter, A. brasiliensis",A. brasiliensis; 2.7% treatment,0 mm
same,"Inhibition Diameter, A. brasiliensis",A. brasiliensis; 4.5% treatment,0 mm
same,Log reduction of A. brasiliensis,"[1]; Study 1, cream with caprylic acid, by the end of the study (28 days)",2 log
same,Ability to reduce the mold in cream,[1]; caprylic acid alone as control,unable to reduce the mold
same,Log reduction of C. albicans,[2],5 log
same,Log reduction of E. coli,[3],5 log
same,Log reduction of P. aeruginosa,[4],5 log
same,Log reduction of S. aureus,[5],5 log
